Data reported in ChEMBL document CHEMBL5661943, “ASAP - In vitro antiviral effect” (2024).
Values joined by “and” are separate entries in the source; they are usually repeats but may differ in a detail not shown here. Equal entries are not always repeated.

Legend:
[1] = test system: Zika virus; test: EC50 is reported via analysis of immunofluorescence staining. The assay has been performed by Icahn School of Medicine at Mount Sinai.; assay type: functional, organism-based, Chlorocebus sabaeus, VeroE6/TMPRSS2
[2] = test system: dengue virus type 2; test: Functional immunofluorescence assay to measure dose dependent changes in antiviral-drug inhibitory efficacy against Dengue virus type 2 Thailand/16681/84 in Vero E6/TMPRSS2 cells (cotreated with P-gp inhibitor, Elacridar). Cells are treated with antiviral candidates that are serially diluted, following infection, cells are fixed. EC50 is reported via analysis of immunofluorescence staining. The assay has been performed by Icahn School of Medicine at Mount Sinai.; assay type: organism-based, Chlorocebus sabaeus, VeroE6/TMPRSS2
[3] = test system: Zika virus; test: Functional CPE-based assay to measure dose dependent changes in antiviral-drug inhibitory efficacy against Zika virus MR766 in Vero E6 miRFP670 cells. Cells are treated with antiviral candidates that are serially diluted. EC50 is reported via analysis of MTS assay as a readout of CPE. The assay has been performed by KU Leuven.; assay type: organism-based, Chlorocebus sabaeus, Vero C1008; conditions: Zika virus
[4] = test system: Zika virus; test: Functional immunofluorescence assay to measure dose dependent changes in antiviral-drug inhibitory efficacy against Zika virus PRVABC59 in Vero E6/TMPRSS2 cells. Cells are treated with antiviral candidates that are serially diluted, following infection, cells are fixed. EC50 is reported via analysis of immunofluorescence staining. The assay has been performed by Icahn School of Medicine at Mount Sinai.; assay type: organism-based, Chlorocebus sabaeus
[5] = test system: dengue virus type 2; test: Functional immunofluorescence assay to measure dose dependent changes in antiviral-drug inhibitory efficacy against Dengue virus type 2 Thailand/16681/84 in Vero E6/TMPRSS2 cells. Cells are treated with antiviral candidates that are serially diluted, following infection, cells are fixed. EC50 is reported via analysis of immunofluorescence staining. The assay has been performed by Icahn School of Medicine at Mount Sinai.; assay type: organism-based, Chlorocebus sabaeus; conditions: for EC50: VeroE6/TMPRSS2; for EC90: VeroE6/TMPRSS2, Baseline response 0 %, Maximum response 100 %
[6] = test system: Zika virus; test: Functional CPE-based assay to measure dose dependent changes in antiviral-drug inhibitory efficacy against Zika virus MR766 in Vero E6 miRFP670 cells (cotreated with P-gp inhibitor, CP100356). Cells are treated with antiviral candidates that are serially diluted. EC50 is reported via analysis of MTS assay as a readout of CPE. The assay has been performed by KU Leuven.; assay type: organism-based, Chlorocebus sabaeus, Vero C1008; conditions: Zika virus, Vero C1008
[7] = test system: dengue virus type 2; test: Functional assay to measure dose dependent changes in antiviral-drug inhibitory efficacy against Dengue virus type 2 New Guinea C in Vero E6 miRFP670 cells (cotreated with P-gp inhibitor, CP100356). Cells are treated with antiviral candidates that are serially diluted, following infection, cells are fixed. EC50 is reported via analysis of fluorescence intensity using high-content imager. The …; assay type: organism-based, Chlorocebus sabaeus, Vero C1008; conditions: for EC90: Baseline response 0 %, Maximum response 100 %, P-gp concentration 500 nM, P-gp inhibitor CP100356
[8] = test system: dengue virus type 2; test: Functional CPE-based assay to measure dose dependent changes in antiviral-drug inhibitory efficacy against Dengue virus type 2 New Guinea C in Huh7 cells. Cells are treated with antiviral candidates that are serially diluted. EC50 is reported via analysis of MTT/MTS assay as a readout of CPE. The assay has been performed by National Institute of Allergy and Infectious Diseases.; assay type: organism-based, Homo sapiens; conditions: Huh-7

## Cc1ccc(NC(=O)c2cc(Cl)cc(NC(=O)OCc3ccccc3)c2)cc1CN
[1]; Zika virus, VeroE6/TMPRSS2, Maximum measured 108.754 %, Minimum measured 39.323 %, P-gp concentration 2 uM, P-gp inhibitor Elacidar
  EC90: > 5.56 µM
[1]; Zika virus, VeroE6/TMPRSS2, Baseline response 0 %, Hill slope -0.897, Maximum measured 104.466 %, Maximum response 100 %, Minimum measured 2.423 %, P-gp concentration 2 uM, R squared 0.573, P-gp inhibitor Elacidar
  EC90: > 5.56 µM
[1]; veroe6/tmprss2
  EC50: 0.903 µM and > 5.56 µM
[2]; Dengue virus, VeroE6/TMPRSS2
  EC50: 0.532 µM
[2]; Dengue virus, VeroE6/TMPRSS2, Baseline response 0 %, Hill slope -0.692, Maximum measured 108.544 %, Maximum response 100 %, Minimum measured 11.231 %, P-gp concentration 2 uM, R squared 0.808, P-gp inhibitor Elacidar
  EC90: > 5.56 µM
[3]; Vero C1008
  EC50: > 3.12 µM
[3]; Vero C1008, Baseline response 0 %, Hill slope 16.084, Maximum measured 41.192 %, Maximum response 100 %, Minimum measured -3.993 %, R squared 0.961
  EC90: > 3.12 µM
[4]; VeroE6/TMPRSS2
  EC50: > 50 µM
[4]; VeroE6/TMPRSS2, Maximum measured 627.464 %, Minimum measured 75.729 %
  EC90: > 50 µM
[5]
  EC50: < 0.023 µM
[5]; Hill slope -0.25, Maximum measured 56.738 %, Minimum measured 21.854 %, R squared 0.324
  EC90: > 5.56 µM
[6]
  EC50: 2.61 µM
[6]; Baseline response 0 %, Hill slope 6.556, Maximum measured 76.39 %, Maximum response 100 %, Minimum measured 1.967 %, P-gp concentration 500 nM, R squared 0.915, P-gp inhibitor CP100356
  EC90: > 3.12 µM
[7]; EC90 CI (lower) 0 uM, EC90 CI (upper) Could not be calculated, confidence interval too large, Hill slope -15.095, Maximum measured 108.434 %, Minimum measured 1.527 %, R squared 0.917
  EC90: 3.71 µM
[7]; Hill slope -19.938, Maximum measured 107.168 %, Minimum measured 6.341 %, R squared 0.876
  EC90: 1.73 µM
[7]; vero c1008
  EC50: 3.21 µM and 1.55 µM

## Cc1[nH]c2ccccc2c1CN1CCC(c2c[nH]c3ncccc23)CC1
[1]; Baseline response 0 %, EC90 CI (lower) 0.367 uM, EC90 CI (upper) 8.175 uM, Hill slope -1.726, Maximum measured 163.583 %, Maximum response 100 %, Minimum measured 5.054 %, P-gp concentration 2 uM, R squared 0.694, P-gp inhibitor Elacidar
  EC90: 22.1 µM
[1]; Baseline response 0 %, Hill slope -0.27, Maximum measured 107.973 %, Maximum response 100 %, Minimum measured 29.852 %, P-gp concentration 2 uM, R squared 0.23, P-gp inhibitor Elacidar
  EC90: > 10 µM
[1]; Zika virus, VeroE6/TMPRSS2
  EC50: > 10 µM
[1]; veroe6/tmprss2
  EC50: 6.19 µM
[2]; Baseline response 0 %, Hill slope -0.694, Maximum measured 115.257 %, Maximum response 100 %, Minimum measured 6.241 %, P-gp concentration 2 uM, R squared 0.775, P-gp inhibitor Elacidar
  EC90: > 16.7 µM
[2]; Dengue virus, VeroE6/TMPRSS2, Baseline response 0 %, Hill slope -0.066, Maximum measured 94.332 %, Maximum response 100 %, Minimum measured 44.366 %, P-gp concentration 2 uM, R squared 0.022, P-gp inhibitor Elacidar
  EC90: > 10 µM
[2]; veroe6/tmprss2
  EC50: > 10 µM and 3.01 µM
[3]; Vero C1008
  EC50: 6.51 µM
  EC90: 7.41 µM
[4]; VeroE6/TMPRSS2
  EC50: 13.1 µM
[4]; VeroE6/TMPRSS2, Baseline response 0 %, Hill slope -0.459, Maximum measured 94.623 %, Maximum response 100 %, Minimum measured 4.56 %, R squared 0.472
  EC90: > 50 µM
[5]
  EC50: > 16.7 µM
[5]; Hill slope -0.265, Maximum measured 113.218 %, Minimum measured 41.507 %, R squared 0.203
  EC90: > 16.7 µM
[7]; Dengue virus, Vero C1008
  EC50: 7.05 µM
[7]; Dengue virus, Vero C1008, EC90 CI (lower) 3.837 uM, EC90 CI (upper) 5.899 uM, Hill slope -5.588, Maximum measured 107.944 %, Minimum measured 3.436 %, R squared 0.982
  EC90: 10.5 µM

## CCCCCC(=O)N[C@H](C(=O)N1CCCCC1)c1ccc(OCc2ccccc2)cc1
[8]
  EC50: > 19 µM

## CC[C@@H](Cc1nnn[nH]1)c1ccc(NC(=O)c2cc(Cl)cc(NC(=O)OCc3ccccc3)c2)cc1
[1]; Zika virus, VeroE6/TMPRSS2
  EC50: 1.93 µM
  EC90: 2.9 µM
[2]; Dengue virus, VeroE6/TMPRSS2
  EC50: 10.4 µM
[2]; Dengue virus, VeroE6/TMPRSS2, Baseline response 0 %, Hill slope -0.442, Maximum measured 140.797 %, Maximum response 100 %, Minimum measured 47.356 %, P-gp concentration 2 uM, R squared 0.351, P-gp inhibitor Elacidar
  EC90: > 16.7 µM
[3]; Vero C1008
  EC50: > 50 µM
[3]; Vero C1008, Baseline response 0 %, Hill slope 5.649, Maximum measured 5.74 %, Maximum response 100 %, Minimum measured -1.447 %, R squared 0.24
  EC90: > 50 µM
[4]; VeroE6/TMPRSS2
  EC50: > 50 µM
  EC90: > 50 µM
[5]
  EC50: > 5.56 µM
[5]; Hill slope -0.186, Maximum measured 93.084 %, Minimum measured 36.595 %, R squared 0.076
  EC90: > 5.56 µM
[7]; Dengue virus, Vero C1008
  EC50: 43.5 µM
[7]; Dengue virus, Vero C1008, Hill slope -24.458, Maximum measured 108.477 %, Minimum measured 3.247 %, R squared 0.952
  EC90: 47.6 µM

## NCc1cccc(NC(=O)C[C@@H](NC(=O)OCc2ccccc2)c2ccc(OCc3ccccc3)cc2)c1
[8]
  EC50: > 6.1 µM

## CCCCCC(=O)N[C@H](C(=O)Nc1ccc2[nH]ncc2c1)c1ccc(OCc2ccccc2)cc1
[8]
  EC50: 6.2 µM

## O=C(O)c1cc(Oc2ccc(F)cc2)c(F)cc1NS(=O)(=O)c1ccc(Oc2ccccc2Cl)cc1
[1]; Baseline response 0 %, Hill slope -0.477, Maximum measured 92.293 %, Maximum response 50 %, Minimum measured 32.859 %, P-gp concentration 2 uM, R squared 0.014, P-gp inhibitor Elacidar
  EC90: > 16.7 µM
[1]; Zika virus, VeroE6/TMPRSS2, Baseline response 0 %, Hill slope -0.324, Maximum measured 79.955 %, Maximum response 100 %, Minimum measured 28.499 %, P-gp concentration 2 uM, R squared 0.691, P-gp inhibitor Elacidar
  EC90: > 16.7 µM
[2]; Dengue virus, VeroE6/TMPRSS2
  EC50: > 16.7 µM
[2]; Dengue virus, VeroE6/TMPRSS2, Baseline response 0 %, Hill slope -0.235, Maximum measured 89.319 %, Maximum response 100 %, Minimum measured 56.356 %, P-gp concentration 2 uM, R squared 0.164, P-gp inhibitor Elacidar
  EC90: > 16.7 µM
[8]
  EC50: > 20 µM

## CCCCCC(=O)N[C@H](C(=O)Nc1ccc(C(N)=O)cc1)c1ccc(OCc2ccccc2)cc1
[8]
  EC50: > 32 µM

## COc1cc(Cc2c(-c3ccc(F)cc3)noc2C)nc(N2CCNCC2)n1
[8]
  EC50: > 18 µM

## c1ccc2sc(C3CCN(Cc4c[nH]c5ccccc45)CC3)nc2c1
[1]; Baseline response 0 %, EC90 CI (lower) 0.007 uM, EC90 CI (upper) 47.388 uM, Hill slope -1.134, Maximum measured 126.957 %, Maximum response 50 %, Minimum measured 1.357 %, P-gp concentration 2 uM, R squared 0.32, P-gp inhibitor Elacidar
  EC90: 28.6 µM
[1]; Zika virus, VeroE6/TMPRSS2
  EC50: 2.33 µM
[1]; Zika virus, VeroE6/TMPRSS2, Baseline response 0 %, Hill slope -0.408, Maximum measured 80.807 %, Maximum response 100 %, Minimum measured 15.814 %, P-gp concentration 2 uM, R squared 0.363, P-gp inhibitor Elacidar
  EC90: > 16.7 µM
[1]; veroe6/tmprss2
  EC50: 4.11 µM
[2]; Baseline response 0 %, EC90 CI (lower) 2.225 uM, EC90 CI (upper) 16.418 uM, Hill slope -4.495, Maximum measured 125.314 %, Maximum response 100 %, Minimum measured 8.4 %, P-gp concentration 2 uM, R squared 0.582, P-gp inhibitor Elacidar
  EC90: 16.1 µM
[2]; Dengue virus, VeroE6/TMPRSS2
  EC90: 16.6 µM
[2]; veroe6/tmprss2
  EC50: 2.19 µM and 9.85 µM
[8]
  EC50: > 18 µM

## CCCCCC(=O)N[C@H](C(=O)NCc1cccc(CN)c1)c1ccc(OCc2ccccc2)cc1
[8]
  EC50: > 18 µM

## NCc1ccc(-c2ncc(OCC3CCNCC3)nc2-c2ccc(C3CCOCC3)cc2)cc1
[8]
  EC50: > 32 µM

## NCc1cccc(NC(=O)[C@@H](NC(=O)OCc2ccccc2)c2ccc(OCc3ccccc3)cc2)c1
[8]
  EC50: > 18 µM
